Results from patent US20120220581A1, “IMIDAZO[1,2-b]PYRIDAZINE DERIVATIVES AND THEIR USE AS PDE10 INHIBITORS” (Janssen-Cilag, S.A., priority 2009, published 2012).
Like-named read-outs stand apart in the source and are kept apart here.

Experiments:
[1] = target: T1, Rat recombinant PDE10A (rPDE10A2) (Rattus norvegicus, UniProt Q9QYJ6); assay: In vitro assay PDE10A (SPA, 3H-cAMP); type: biochemical
T1 construct: inferred from the Ni metal chelate purification; made in house; host or cells: Sf9 insect cells (baculovirus)
T1 sequence (Q9QYJ6 1-794): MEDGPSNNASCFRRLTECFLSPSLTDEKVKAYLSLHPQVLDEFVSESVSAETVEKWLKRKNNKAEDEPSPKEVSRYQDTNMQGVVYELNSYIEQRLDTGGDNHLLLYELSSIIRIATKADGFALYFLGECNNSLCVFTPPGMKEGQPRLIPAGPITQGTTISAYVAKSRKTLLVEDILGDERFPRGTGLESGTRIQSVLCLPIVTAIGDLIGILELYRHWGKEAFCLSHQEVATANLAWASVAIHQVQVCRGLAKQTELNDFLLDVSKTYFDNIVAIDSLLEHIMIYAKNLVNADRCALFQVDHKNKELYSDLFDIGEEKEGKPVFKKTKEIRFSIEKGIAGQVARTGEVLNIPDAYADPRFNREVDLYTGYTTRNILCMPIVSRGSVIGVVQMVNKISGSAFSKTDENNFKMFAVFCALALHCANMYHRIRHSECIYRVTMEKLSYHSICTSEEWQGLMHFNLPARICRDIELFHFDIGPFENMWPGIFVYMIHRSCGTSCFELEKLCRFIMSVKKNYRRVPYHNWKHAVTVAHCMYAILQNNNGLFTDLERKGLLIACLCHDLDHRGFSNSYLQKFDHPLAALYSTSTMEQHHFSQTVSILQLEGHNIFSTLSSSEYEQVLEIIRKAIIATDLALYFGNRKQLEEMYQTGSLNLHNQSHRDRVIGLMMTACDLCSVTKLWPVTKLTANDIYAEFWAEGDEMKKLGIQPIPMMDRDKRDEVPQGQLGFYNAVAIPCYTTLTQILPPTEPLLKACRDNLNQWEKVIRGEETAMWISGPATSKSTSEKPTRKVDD
In short: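 Rat PDE10A2 expressed in Sf9 cells and Ni-purified; incubated with 60 nM cAMP plus 0.008 μCi 3H-cAMP in 50 mM Tris pH 7.8, 8.3 mM MgCl2, 1.7 mM EGTA for 60 min at room temperature. Product quantified by scintillation proximity counting; final DMSO 1%.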

[2] = tested on: apomorphine-induced stereotypy in rats; assay: Apomorphine-induced stereotypy in rats (APO); type: in vivo; settings: Rattus norvegicus
Description: Apomorphine (1.0 mg/kg, i.v.)-induced stereotypy (compulsive sniffing, licking, chewing) was scored every 5 min over the first hour after injection of apomorphine, following a 1 hour interval pre-treatment with the test compound. The score system was: (3) pronounced, (2) moderate, (1) slight, and (0) absent.

PDE5A3 = PDE5A3 (Homo sapiens, UniProt O76074); assay: In vitro PDE selectivity assay (SPA), PDE5A3; type: biochemical; settings: hPDE5A3; read-out: PDE 5A3 (expressed as pIC50) (converted)
In short: (§1)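 Inhibition of each PDE isoform was measured by scintillation proximity assay with ³H-cyclic nucleotide substrate, using incubation buffer, substrate concentration, incubation time and stop solution adapted per isoform. Compounds were tested in dose-response against 1% DMSO controls and enzyme-free blanks. IC50 came from a least-squares fit of blank-subtracted % of control versus concentration.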

[3] = target: other members of the PDE family (Homo sapiens, UniProt Q9HCR9); assay: In vitro PDE selectivity assay (SPA), other members of the PDE family (protocols in Table A); type: biochemical; settings: hPDE11A4; read-out: PDE 11A4 (expressed as pIC50) (converted)
In short: as §1

[4] = target: other members of the PDE family (Homo sapiens, UniProt Q13946); assay: as above; type: biochemical; settings: hPDE7A1; read-out: PDE 7A (expressed as pIC50) (converted)
In short: as §1

[5] = target: other members of the PDE family (Homo sapiens, UniProt O00408); assay: as above; type: biochemical; settings: hPDE2A; read-out: PDE 2A (expressed as pIC50) (converted)
In short: as §1

[6] = target: other members of the PDE family (Homo sapiens, UniProt O60658); assay: as above; type: biochemical; settings: hPDE8A1; read-out: PDE 8A1 (expressed as pIC50) (converted)
In short: as §1

[7] = target: other members of the PDE family (Homo sapiens, UniProt P16499+P35913); assay: as above; type: biochemical; settings: hPDE6AB; read-out: PDE 6AB (expressed as pIC50) (converted)
In short: as §1

[8] = target: other members of the PDE family (Homo sapiens, UniProt Q14432); assay: as above; type: biochemical; settings: hPDE3A; read-out: PDE 3A (expressed as pIC50) (converted)
In short: as §1

[9] = target: other members of the PDE family (Homo sapiens, UniProt O76083); assay: as above; type: biochemical; settings: hPDE9A; read-out: PDE 9A (expressed as pIC50) (converted)
In short: as §1

PDE4D3 = PDE4D3 (Homo sapiens, UniProt Q08499); assay: In vitro PDE selectivity assay (SPA), PDE4D3; type: biochemical; settings: hPDE4D3; read-out: PDE 4D3 (expressed as pIC50) (converted)
In short: as §1

PDE1B1 = PDE1B1 (Homo sapiens, UniProt Q01064); assay: In vitro PDE selectivity assay (SPA), PDE1B1; type: biochemical; settings: hPDE1B1; read-out: PDE 1B1 (expressed as pIC50) (converted)
[10] = pIC50 corresponds to the −log IC50 expressed in mol/L, read-out: PDE10A2 pIC50 (converted)
[11] = Table 4 in vitro selectivity, read-out: PDE 10A2 (expressed as pIC50) (converted)
[12] = dose at which 50% of the tested animals show the effect, ≧: active in 30% of the animals at the indicated dose, ≦: active in 60%

Sequence of other members of the PDE family (Homo sapiens, UniProt Q9HCR9) (Q9HCR9 whole entry): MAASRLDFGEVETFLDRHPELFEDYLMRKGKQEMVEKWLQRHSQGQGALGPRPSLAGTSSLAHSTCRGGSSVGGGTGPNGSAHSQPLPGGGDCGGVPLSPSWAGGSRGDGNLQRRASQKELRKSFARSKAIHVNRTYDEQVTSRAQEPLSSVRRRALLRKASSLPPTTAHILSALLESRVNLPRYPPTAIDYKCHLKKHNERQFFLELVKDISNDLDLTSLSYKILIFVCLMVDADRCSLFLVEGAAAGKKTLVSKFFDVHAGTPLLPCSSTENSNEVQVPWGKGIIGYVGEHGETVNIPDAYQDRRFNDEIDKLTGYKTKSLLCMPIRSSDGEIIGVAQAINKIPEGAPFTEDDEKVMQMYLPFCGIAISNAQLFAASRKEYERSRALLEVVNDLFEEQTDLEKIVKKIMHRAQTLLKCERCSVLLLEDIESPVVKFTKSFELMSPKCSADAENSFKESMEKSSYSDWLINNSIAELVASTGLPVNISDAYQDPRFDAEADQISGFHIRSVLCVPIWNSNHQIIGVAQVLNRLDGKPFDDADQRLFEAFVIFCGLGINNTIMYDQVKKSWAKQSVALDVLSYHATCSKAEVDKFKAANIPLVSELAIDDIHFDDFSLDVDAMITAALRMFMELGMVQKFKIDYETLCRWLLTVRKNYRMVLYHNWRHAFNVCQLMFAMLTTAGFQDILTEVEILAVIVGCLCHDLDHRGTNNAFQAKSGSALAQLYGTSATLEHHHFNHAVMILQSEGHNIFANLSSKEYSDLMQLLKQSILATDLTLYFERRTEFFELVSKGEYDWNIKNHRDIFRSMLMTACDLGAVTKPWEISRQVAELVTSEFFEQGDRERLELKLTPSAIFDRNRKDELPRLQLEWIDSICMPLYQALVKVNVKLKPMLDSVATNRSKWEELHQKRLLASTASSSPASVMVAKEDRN
Sequence of PDE4D3 (Q08499 1-673 isoform Q08499-2): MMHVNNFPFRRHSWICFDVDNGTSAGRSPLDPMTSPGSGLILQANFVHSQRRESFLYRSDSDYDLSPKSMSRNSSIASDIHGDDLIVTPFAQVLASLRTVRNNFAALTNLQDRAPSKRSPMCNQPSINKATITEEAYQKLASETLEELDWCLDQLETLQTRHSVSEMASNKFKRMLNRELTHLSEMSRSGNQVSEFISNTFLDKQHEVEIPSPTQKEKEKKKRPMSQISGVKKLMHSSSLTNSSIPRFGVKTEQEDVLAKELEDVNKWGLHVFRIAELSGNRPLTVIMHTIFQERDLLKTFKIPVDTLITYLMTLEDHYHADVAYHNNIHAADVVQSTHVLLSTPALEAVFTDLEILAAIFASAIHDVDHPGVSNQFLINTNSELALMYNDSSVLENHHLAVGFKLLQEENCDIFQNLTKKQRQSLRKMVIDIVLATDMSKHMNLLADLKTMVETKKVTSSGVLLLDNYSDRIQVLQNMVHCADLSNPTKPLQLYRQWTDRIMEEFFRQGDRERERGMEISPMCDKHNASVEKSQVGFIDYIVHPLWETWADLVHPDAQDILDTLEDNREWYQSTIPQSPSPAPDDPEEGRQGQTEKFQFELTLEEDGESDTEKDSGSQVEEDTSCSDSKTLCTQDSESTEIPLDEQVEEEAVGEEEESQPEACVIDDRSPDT
Sequence of other members of the PDE family (Homo sapiens, UniProt O76083) (O76083 whole entry): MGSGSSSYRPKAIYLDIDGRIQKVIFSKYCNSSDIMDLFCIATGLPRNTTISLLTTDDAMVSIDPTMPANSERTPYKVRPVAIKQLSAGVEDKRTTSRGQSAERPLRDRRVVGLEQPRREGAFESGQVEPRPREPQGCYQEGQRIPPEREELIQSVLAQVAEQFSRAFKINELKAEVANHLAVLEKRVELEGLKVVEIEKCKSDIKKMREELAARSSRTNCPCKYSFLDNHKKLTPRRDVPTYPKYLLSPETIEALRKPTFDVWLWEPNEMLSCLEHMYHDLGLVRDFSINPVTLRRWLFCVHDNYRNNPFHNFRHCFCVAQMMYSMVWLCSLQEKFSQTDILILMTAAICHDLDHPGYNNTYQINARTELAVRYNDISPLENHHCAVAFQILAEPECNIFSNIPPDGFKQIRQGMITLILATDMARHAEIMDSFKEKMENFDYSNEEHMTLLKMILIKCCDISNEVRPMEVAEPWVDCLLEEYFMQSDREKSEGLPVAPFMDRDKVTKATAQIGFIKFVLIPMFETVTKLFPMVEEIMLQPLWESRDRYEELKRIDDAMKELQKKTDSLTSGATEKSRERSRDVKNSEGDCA
Sequence of other members of the PDE family (Homo sapiens, UniProt Q14432) (Q14432 whole entry): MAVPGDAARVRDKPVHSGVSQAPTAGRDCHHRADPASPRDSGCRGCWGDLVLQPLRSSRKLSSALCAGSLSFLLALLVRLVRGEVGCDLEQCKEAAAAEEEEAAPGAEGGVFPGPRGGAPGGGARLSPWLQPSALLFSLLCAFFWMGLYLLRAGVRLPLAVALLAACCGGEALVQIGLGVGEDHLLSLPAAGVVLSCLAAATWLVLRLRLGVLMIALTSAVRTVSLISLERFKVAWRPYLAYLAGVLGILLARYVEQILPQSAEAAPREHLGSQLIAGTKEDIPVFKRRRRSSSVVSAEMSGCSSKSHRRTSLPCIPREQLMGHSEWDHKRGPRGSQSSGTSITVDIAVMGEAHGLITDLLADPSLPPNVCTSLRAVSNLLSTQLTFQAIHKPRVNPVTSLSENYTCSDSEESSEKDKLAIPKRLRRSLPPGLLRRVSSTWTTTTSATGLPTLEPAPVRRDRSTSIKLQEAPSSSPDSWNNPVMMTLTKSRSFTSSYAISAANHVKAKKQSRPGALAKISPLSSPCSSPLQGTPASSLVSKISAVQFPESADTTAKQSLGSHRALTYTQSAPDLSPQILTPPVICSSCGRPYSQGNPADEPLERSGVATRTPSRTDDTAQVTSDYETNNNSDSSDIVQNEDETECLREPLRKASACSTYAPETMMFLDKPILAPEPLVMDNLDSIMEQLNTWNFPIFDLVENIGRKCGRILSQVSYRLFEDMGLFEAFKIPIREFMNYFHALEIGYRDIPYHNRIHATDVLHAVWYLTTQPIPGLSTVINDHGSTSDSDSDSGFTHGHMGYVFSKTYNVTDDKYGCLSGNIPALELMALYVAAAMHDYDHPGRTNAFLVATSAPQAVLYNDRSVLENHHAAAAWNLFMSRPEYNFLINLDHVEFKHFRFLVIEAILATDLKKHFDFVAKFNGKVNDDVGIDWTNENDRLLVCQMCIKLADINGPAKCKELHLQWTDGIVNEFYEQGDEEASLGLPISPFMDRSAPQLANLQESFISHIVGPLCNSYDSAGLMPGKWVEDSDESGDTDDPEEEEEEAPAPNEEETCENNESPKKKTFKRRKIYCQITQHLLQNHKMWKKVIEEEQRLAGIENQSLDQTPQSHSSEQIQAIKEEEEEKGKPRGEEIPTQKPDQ
Sequence of other members of the PDE family (Homo sapiens, UniProt O00408) (O00408 whole entry): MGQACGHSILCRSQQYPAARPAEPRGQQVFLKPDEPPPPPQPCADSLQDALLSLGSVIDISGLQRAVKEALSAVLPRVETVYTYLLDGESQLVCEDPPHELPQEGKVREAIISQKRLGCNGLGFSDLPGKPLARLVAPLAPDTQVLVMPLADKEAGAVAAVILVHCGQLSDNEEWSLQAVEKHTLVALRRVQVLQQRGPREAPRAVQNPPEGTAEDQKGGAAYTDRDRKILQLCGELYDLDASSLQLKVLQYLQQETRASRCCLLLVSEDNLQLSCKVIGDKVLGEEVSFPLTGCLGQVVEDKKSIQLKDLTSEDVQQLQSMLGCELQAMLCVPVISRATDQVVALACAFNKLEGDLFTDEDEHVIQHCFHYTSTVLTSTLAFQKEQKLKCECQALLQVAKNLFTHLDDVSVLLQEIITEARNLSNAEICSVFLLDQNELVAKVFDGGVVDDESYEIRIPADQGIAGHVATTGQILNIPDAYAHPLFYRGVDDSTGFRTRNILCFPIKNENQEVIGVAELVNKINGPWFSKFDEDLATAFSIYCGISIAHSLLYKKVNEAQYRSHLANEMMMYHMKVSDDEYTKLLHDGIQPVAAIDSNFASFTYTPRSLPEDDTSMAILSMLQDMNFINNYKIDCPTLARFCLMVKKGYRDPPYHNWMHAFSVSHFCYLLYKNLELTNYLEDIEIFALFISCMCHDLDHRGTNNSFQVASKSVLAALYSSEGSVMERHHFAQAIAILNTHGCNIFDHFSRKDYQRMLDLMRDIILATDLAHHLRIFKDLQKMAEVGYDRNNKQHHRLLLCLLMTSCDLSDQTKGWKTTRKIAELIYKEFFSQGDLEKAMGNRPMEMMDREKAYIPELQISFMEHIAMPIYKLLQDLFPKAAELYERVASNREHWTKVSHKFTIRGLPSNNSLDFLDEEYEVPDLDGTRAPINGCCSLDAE
Sequence of other members of the PDE family (Homo sapiens, UniProt Q13946) (Q13946 whole entry): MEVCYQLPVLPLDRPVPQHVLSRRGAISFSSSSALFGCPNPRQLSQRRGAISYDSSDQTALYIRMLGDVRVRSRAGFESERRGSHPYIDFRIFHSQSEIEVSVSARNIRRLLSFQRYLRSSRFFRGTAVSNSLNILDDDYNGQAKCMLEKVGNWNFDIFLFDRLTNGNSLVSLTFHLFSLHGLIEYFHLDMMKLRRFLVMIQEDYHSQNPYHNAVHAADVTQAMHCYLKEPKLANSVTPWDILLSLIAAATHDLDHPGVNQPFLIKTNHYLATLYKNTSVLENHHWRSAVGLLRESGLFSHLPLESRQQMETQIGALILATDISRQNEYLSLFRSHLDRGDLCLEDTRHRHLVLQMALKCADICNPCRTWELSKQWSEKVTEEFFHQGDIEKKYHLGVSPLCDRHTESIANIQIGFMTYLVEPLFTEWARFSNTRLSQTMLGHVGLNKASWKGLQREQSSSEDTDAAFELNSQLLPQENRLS

| SMILES | IC50 [1, 10] | ED50 ([2]; n.d.: found not active at threshold dose 2.5 mg/kg or 10 mg/kg (a), not further tested) | melting point | IC50 (PDE5A3) | IC50 [1, 11] | IC50 [3] | IC50 [4] | IC50 [5] | IC50 [6] | IC50 [7] | IC50 [8] | IC50 [9] | IC50 (PDE4D3) | ED50 [2, 12] | IC50 (PDE1B1) |
| --- | --- | --- | --- | --- | --- | --- | --- | --- | --- | --- | --- | --- | --- | --- | --- |
| Cc1nc2c(-c3ccncc3)ccnn2c1-c1ccc(N2CCOCC2)nc1 [compound 31, 2-methyl-3-[6-(4-morpholinyl)-3-pyridinyl]-8-(4-pyridinyl)-imidazo[1,2-b]pyridazine] | 0.0603 µM | > 2.5 mg/kg | > 300 °C (dec.) | – | – | – | – | – | – | – | – | – | – | – | – |
| COCCn1cc(-c2c(C)nc3c(N4CCOCC4)ccnn23)cn1 [compound 36, 3-[1-(2-methoxyethyl)-1H-pyrazol-4-yl]-2-methyl-8-(4-morpholinyl)-imidazo[1,2-b]pyridazine] | 0.0562 µM | – | – | > 10 µM | 0.0562 µM | > 10 µM | > 10 µM | > 10 µM | > 10 µM | > 10 µM | > 10 µM | > 10 µM | > 10 µM | 5 mg/kg | – |
| c1cc(-c2ccnn3c(-c4ccc(N5CCOCC5)nc4)cnc23)ccn1 [compound 61, 3-[6-(4-morpholinyl)-3-pyridinyl]-8-(4-pyridinyl)-imidazo[1,2-b]pyridazine] | 0.339 µM | – | – | 2.69 µM | 0.339 µM | > 10 µM | > 10 µM | 7.94 µM | – | – | > 10 µM | > 10 µM | > 10 µM | 1.2 mg/kg | > 10 µM |
